Experimental data reported in patent EP2265631B1, “NOVEL ANTIMICROBIAL PEPTIDES AND THEIR APPLICATION” (Ustav Organicke Chemie a Biochemie Akademie Ved Ceske …, priority 2008, dated 2009).
Peptide text beside a SMILES is read from it.

Legend:
[1] = test system: rat pheochromocytoma PC12; experiment: Cytostatic effect on cancer cells (e.g. MTT test); assay type: cell-based; details: 24-72 h incubation, 50% decrease in cell viability
Method: (§1) Tumor cells in suspension or adherent cells were incubated under standard conditions in appropriate culture media for 24-72 h with the peptides in 2-40 micromolar concentration. After this time, the number of living cells was determined using routine tests, e.g. MTT test. The IC50 was determined as concentration of peptides, which caused 50% decrease in cell viability in comparison to controls (no peptide present). In preliminary tests mouse lymphocytic leukemia L1210 (CCL 219), CCRF-CEM T lymphoblastoid (human acute lymphoblastic leukemia, CCL 119), human promyelocytic leukemia HL-60 (CCL 240), human cervix carcinoma HeLa S3, rat pheochromocytoma PC12, human colon adenocarcinoma SW480 (CCL-228), and normal rat epithelial cells (IEC-6, CRL-1592) from ATCC (Manassas, VA, USA), were used. […] Table 4. Cytostatic effect of selected peptides on cancer cells

[2] = test system: human cervix carcinoma HeLa S3; experiment: Cytostatic effect on cancer cells (e.g. MTT test); assay type: cell-based; details: 24-72 h incubation, 50% decrease in cell viability; read-out: IC50 [µM] HeLaS3
Method: as §1

[3] = test system: mouse lymphocytic leukemia L1210; experiment: Cytostatic effect on cancer cells (e.g. MTT test); assay type: cell-based; details: 24-72 h incubation, 50% decrease in cell viability
Method: as §1

[4] = test system: human promyelocytic leukemia HL-60; experiment: Cytostatic effect on cancer cells (e.g. MTT test); assay type: cell-based; details: 24-72 h incubation, 50% decrease in cell viability
Method: as §1

[5] = test system: human colon adenocarcinoma SW480; experiment: Cytostatic effect on cancer cells (e.g. MTT test); assay type: cell-based; details: 24-72 h incubation, 50% decrease in cell viability
Method: as §1

[6] = test system: CCRF-CEM T lymphoblastoid; experiment: Cytostatic effect on cancer cells (e.g. MTT test); assay type: cell-based, human; details: 24-72 h incubation, 50% decrease in cell viability
Method: as §1

[7] = test system: Bacilus subtilis; experiment: Determination of antimicrobial activity (MIC, bacterial growth in LB broth); assay type: cell-based; details: minimum inhibitory concentration (MIC) per method, 37°C, 20 h, read-out: Antimicrobial activity IC50 [µM] B.s.
Method: (§2) Antimicrobial activity was determined as a quantitative minimum inhibitory concentration (MIC) by observing bacterial growth in the presence of different concentrations of tested peptides. Mid-exponential phase bacteria were added to the solutions of the tested antimicrobial peptide at different concentrations (0.5 to 100 µM) in LB broth in multi-well plates. The plates were incubated at 37°C for 20 h while being continuously shaken in a Bioscreen C instrument (Finland). The absorbance was measured at 540 nm every 15 min and each peptide was tested at least 3 times in duplicate. 1.2.10^3 - 7.5.10^3 CFU of bacteria was routinely used in the experiments. Tetracycline in a concentration range of 0.1 - 50 µM was tested as a standard.

[8] = test system: Escherichia coli; experiment: as above; assay type: cell-based; details: minimum inhibitory concentration (MIC) per method, 37°C, 20 h, read-out: Antimicrobial activity IC50 [µM] E. c.
Method: as §2

[9] = test system: Pseudomonnas aeruginosa; experiment: as above; assay type: cell-based; details: minimum inhibitory concentration (MIC) per method, 37°C, 20 h, read-out: Antimicrobial activity IC50 [µM] P.a.
Method: as §2

[10] = test system: Staphylococcus aureus; experiment: as above; assay type: cell-based; details: minimum inhibitory concentration (MIC) per method, 37°C, 20 h, read-out: Antimicrobial activity IC50 [µM] S.a.
Method: as §2

[11] = test system: rat red blood cells; experiment: Determination of hemolytic activity; assay type: cell-based; details: for Hemolytic activity: rat red blood cells (5%), 1 h at 37°C, peptides 1-200 µM
Method: The peptides in the concentration (1-200 µM) were incubated with rat red blood cells (5%) for 1 h at 37°C in a physiological solution at a final volume of 0.2 ml. The samples were then centrifuged for 5 min at 250 g, and the absorbance of the supernatant was determined at 540 nm. Supernatants of red blood cells suspended in physiological solution and in 0.2% TRITON X100 in physiological solution served as controls for zero hemolysis (blank) and 100% hemolysis, respectively. Table 3. Antimicrobial and hemolytic activity of melectin (I) and its synthetic analogs of formulas II/1 to II/18

[12] = test system: Tumor cells; experiment: Cytostatic effect on cancer cells, summary over the cell panel; assay type: cell-based; details: range over the tumor cell lines, preliminary tests
Method: as §1

[13] = test system: bacteria; experiment: Antimicrobial effect, general statement; assay type: cell-based
Method: as §2

Row | Compound | IC50 [1] [µM] | IC50 [2] [µM] | IC50 [3] [µM] | IC50 [4] [µM] | IC50 [5] [µM] | IC50 [6] [µM] | IC50 [7] [µM] | IC50 [8] [µM] | IC50 [9] [µM] | IC50 [10] [µM] | hemolytic activity (in words) [11] | Hemolytic activity [11] | IC50 [12] [µM] | antimicrobial effect (in words) [13]
1 | CC[C@H](C)[C@H](NC(=O)[C@H](CO)NC(=O)[C@H](CC(C)C)NC(=O)[C@H](Cc1ccccc1)NC(=O)CN)C(=O)N[C@@H](CC(C)C)C(=O)N[C@@H](CCCCN)C(=O)N[C@@H](CCCCN)C(=O)N[C@H](C(=O)N[C@@H](CC(C)C)C(=O)N1CCC[C@H]1C(=O)N[C@@H](CCCCN)C(=O)N[C@H](C(=O)N[C@@H](CCSC)C(=O)N[C@@H](C)C(=O)N[C@@H](Cc1cnc[nH]1)C(=O)N[C@@H](CCSC)C(=O)N[C@@H](CCCCN)C(N)=O)C(C)C)C(C)C [Peptide I, H-Gly-Phe-Leu-Ser-Ile-Leu-Lys-Lys-Val-Leu-Pro-Lys-Val-Met-Ala-His-Met-Lys-NH2] | 10 | 18.1 | > 10 | > 10 | 25 | > 10 | 0.8 | 2 | 18.5 | 6.8 | low hemolytic activity | > 100 µM | 4 to 30 | strong antimicrobial effect
2 | CC[C@H](C)[C@H](NC(=O)[C@H](CO)NC(=O)[C@H](CC(C)C)NC(=O)[C@H](Cc1ccccc1)NC(=O)CN)C(=O)N[C@@H](CC(C)C)C(=O)N[C@@H](CCCCN)C(=O)N[C@@H](CCCCN)C(=O)N[C@H](C(=O)N[C@@H](CC(C)C)C(=O)N1CCC[C@@H]1C(=O)N[C@@H](CCCCN)C(=O)N[C@H](C(=O)N[C@@H](CCSC)C(=O)N[C@@H](C)C(=O)N[C@@H](Cc1c[nH]cn1)C(=O)N[C@@H](CCSC)C(=O)N[C@@H](CCCCN)C(N)=O)C(C)C)C(C)C [II/15, H-Gly-Phe-Leu-Ser-Ile-Leu-Lys-Lys-Val-Leu-Pro-Lys-Val-Met-Ala-His-Met-Lys-NH2] | – | – | – | – | – | – | 1.7 | 4.2 | 100 | > 100 | – | »200 µM | – | –
3 | H-GFLSILKKVLPKVMHAMK-NH2 [II/6, H-Gly-Phe-Leu-Ser-Ile-Leu-Lys-Lys-Val-Leu-Pro-Lys-Val-Met-His-Ala-Met-Lys-NH2] | – | – | – | – | – | – | 1.1 | 2.1 | 35.1 | 9.1 | – | 150 µM | – | –
4 | H-LSILKKVLPKVMAHMK-NH2 [II/10, H-Leu-Ser-Ile-Leu-Lys-Lys- Val-Leu-Pro-Lys-Val-Met-Ala-His-Met-Lys-NH2] | – | – | – | – | – | – | 7.9 | 76.2 | > 100 | > 100 | – | »200 µM | – | –
5 | H-GFLSILKKVLP-NH2 [II/12, H-Gly-Phe-Leu-Ser-Ile-Leu-Lys-Lys-Val-Leu-Pro-NH2] | – | – | – | – | – | – | 13 | 78 | > 100 | > 100 | – | »200 µM | – | –
6 | H-GFLSILKKVLAKVMAHMK-NH2 [II/2, H-Gly-Phe-Leu-Ser-Ile-Leu-Lys-Lys-Val-Leu-Ala-Lys-Val-Met-Ala-His-Met-Lys-NH2] | – | – | – | – | – | – | 1.3 | 1.6 | 18.3 | 4.7 | – | 29.7 µM | – | –
7 | CC[C@H](C)[C@H](NC(=O)[C@H](CO)NC(=O)[C@H](CC(C)C)NC(=O)[C@H](Cc1cccc2ccccc12)NC(=O)CN)C(=O)N[C@@H](CC(C)C)C(=O)N[C@@H](CCCCN)C(=O)N[C@@H](CCCCN)C(=O)N[C@H](C(=O)N[C@@H](CC(C)C)C(=O)N1CCC[C@H]1C(=O)N[C@@H](CCCCN)C(=O)N[C@H](C(=O)N[C@@H](CCSC)C(=O)N[C@@H](C)C(=O)N[C@@H](Cc1c[nH]cn1)C(=O)N[C@@H](CCSC)C(=O)N[C@@H](CCCCN)C(N)=O)C(C)C)C(C)C [II/16, H-Gly-1Nal-Leu-Ser-Ile-Leu-Lys-Lys- V al-Leu-Pro-Lys- V al-Met-Ala-His-Met-Lys-NH2] (HELM PEPTIDE1{G.[O=C([C@H](Cc1cccc2ccccc12)N[*:1])[*:2]].L.S.I.L.K.K.V.L.P.K.V.M.A.H.M.K.[am]}$$$$V2.0) | – | – | – | – | – | – | 0.4 | 0.4 | 17.3 | 2.5 | – | 25 µM | – | –
8 | H-SILKKVLPKVMAHMK-NH2 [II/11, H-Ser-Ile-Leu-Lys-Lys-Val-Leu-Pro-Lys-Val-Met-Ala-His-Met-Lys-NH2] | – | – | – | – | – | – | 21.8 | > 100 | > 100 | > 100 | – | »200 µM | – | –
9 | H-GFLSILKKVLPKVMKAMK-NH2 [II/7, H-Gly-Phe-Leu-Ser-Ile-Leu-Lys-Lys-Val-Leu-Pro-Lys-Val-Met-Lys-Ala-Met-Lys-NH2] | – | 9.6 | 6.9 | 9.1 | 12.5 | 8.8 | 0.8 | 1.5 | 31.7 | 7.7 | – | 70 µM | – | –
10 | H-GFLSILKKVLKKVMAHMK-NH2 [II/1, H-Gly-Phe-Leu-Ser-Ile-Leu-Lys-Lys-Val-Leu-Lys-Lys-Val-Met-Ala-His-Met-Lys-NH2] | – | – | – | – | – | – | 1.4 | 1.8 | 25.3 | 13.3 | – | 27.3 µM | – | –
